The values that follow come from patent publication EP1169044B1, “USE OF FUCOSYLATED SIALYLATED N-ACETYL LACTOSAMINE CARBOHYDRATE STRUCTURES FOR INHIBITION OF BACTERIAL ADHERENCE” (Borén, Thomas, priority 1999, dated 2000).

Holding throughout (type): binding, Helicobacter pylori
Test [1] deals with H. pylori strains. As to the kind of experiment: radio immuno analysis (RIA) with 125I-labelled neoglycoconjugates. The conditions noted are these: strains of Fig. 4 (BabA2 mutant, babA1A2 mutant, CCUG 17875, CCUG 17874), 400 ng conjugate, 30 min. The method, then:
Bars, from the left to the right; The sialyl-alfa2.61actose-, sialyl-alfa2.31actose-, sialyl-Lewis a-, sialyl-Lewis x-, and Lewis b-, synthesised sialyl-Lewis x- sialyl-acetyllactosaminee, both with a either a 3 carbon or 14 carbon (extended/hydrophilic) spacer, conjugated to albumin, Finally, the histo-blood group antigen Lewis y (synthesised penta-saccharide) (V. Behar and S.J. Danishefsky, Angew. Chem. Int. Ed. Engi, 1994, 33, no. 14, 1468.), was analysed as a neo-glycoconjugate.
The sialyl-alfa2.3lactose-, sialyl-alfa2.61actose-, sialyl-Lewis a-, and Lewis b-oligosaccharide antigens used for neoglycoconjugate preparations were purified by HPLC, structurally identified and characterized with NMR-spectroscopy, and more than 95% pure. These conjugates were attached to albumin with an APD (acetylphenylenediamine) spacer attached to the carbohydrate by reductive animation and thus the terminal reducing monosaccharide unit of the oligosaccharide is reduced and is present as an aminoalditol, IsoSep AB, Tullinge, Sweden (T. Borén, P. Falk, K. A. Roth, G. Larson, and S. Normark, Science. 262, 1892 (1993), P. D. Rye, Nature Biotechnology 2, 155 (1996)). The synthesised sialyl-Lewis x- tetrasaccharide antigen was conjugated to albumin with the MPE (mercaptopropionyl-amidoethyl) -spacer, IsoSep AB. Synthesised sialyl-Lewis x-tetrasaccharide and sialyl-acetyllactosaminee, both with a either a 3 carbon or 14 carbon (extended/hydrophilic) spacer, conjugated to albumin, were obtained from Dextra Laboratories, Reading, UK. The RIA (Fig. 4) was performed according to (P. Falk, T. Borén, D. Haslam, M. G. Caparon, Meth. Cell Biol. 45, 161 (1994)) with minor modifications; the glycoconjugates were ^125I-labelled by the Chloramine T method. 1 ml of bacteria (A600= OD 0.10) was incubated with 400 ng of ^125I-labelled conjugate (that is an excess of receptor substrate) for 30 min. in phosphate buffered saline (PBS), 0.5 % albumin, 0.05 % Tween-20 (BB-buffer). After centrifugation, the ^125I-activity bound to the bacterial pellet was measured by gamma scintillation counting. Binding experiments were reproducible and performed in triplets. In addition, the level of binding-activity within the strain was stabile.

Test [2] relates to 91 Swedish clinical H. pylori isolates. The following applies: out of 91 clinical isolates.
Procedure: Bacteria were grown at 37°C in 10 % CO2 and 5% O2 (T. Borén, P. Falk, K. A. Roth, G. Larson, and S. Normark, Science.. 262, 1892(1993), for 2 days for optimal Le b antigen binding activity.
Test [3] has as its system CCUG 17875 and the babA1A2 double mutant. The experiment in a line: H. pylori adherence to immobilized neoglycoconjugates in ELISA. The conditions noted are these: strain not specified (CCUG 17875 and babA1A2 double mutant tested). The method, then: CCUG 17875 (75) and the babA1A2 double mutant (DM) were added to the ELISA in a series labelled A-F. Adherent bacteria were detected by polyclonal rabbit antisera against H. pylori CCUG 17875. The products of the horseradish peroxidase reaction were quantified in a microtiter plate reader.
Sialyl-Lewis a-PAA, sialyl-Lewis x-PAA, 3'-HSO3-Lewis a-PAA, and 3'-HSO3-Lewis x-PAA, i.e. synthesised sialylated or sulphated Lewis antigens conjugated to polyacrylamide backbone were obtained from Syntesome GmbH, Munchen, Germany. The conjugates were added in dilution series of 1µg, 100ng, and 10 ng, in 90µl 1% BSA PBS 0.05% Tween, to streptavidin coated microtiter (ELISA) plates (Roche Diagnostics Scandinavia AB, Bromma, Sweden). After one hour of incubation in room temperature, the plate was blocked over night at 4°C, with 500ng biotinylated albumin in 300µl 1% BSA PBS 0.005% Tween. […] Adherent bacteria were detected by polyclonal rabbit antisera at a dilution of 1:3000, raised against formalin fixed bacteria of strain CCUG 17875 in New Zealand rabbits (Agrisera AB, Vännäsby, Sweden) The antibodies were allowed to incubate in 1% BSA in PBS 0.05% Tween for 30 minutes at room temperature. […] The products of the horseradish peroxidase reaction were quantified in a microtiter plate reader at 490 nm.
In general terms: In an ELISA, binding on a coated surface is turned into a signal by an enzyme label.

For the compound `CC(=O)NC1C(OC2C(O)C(O)OC(CO)C2O)OC(CO)C(OC2OC(CO)C(O)C(O)C2OC2OC(C)C(O)C(O)C2O)C1OC1OC(C)C(O)C(O)C1O` (centres unmarked) [Lewis y penta-saccharide antigen, Fucα2Galβ4GlcNAcβ3Gal 3 Fucα1], the “binding of 125I-labelled neoglycoconjugate (in words)” value in test [1] is “did not demonstrate any binding activity”; in test [1] (listed as Lewis y pentasacharide antigen), “did not detect any binding activity”. The “number of isolates that bound the neoglycoconjugate antigen” value in test [2] is given as “None”.
“HSO3-3Galβ3GlcNAcβ3Galβ4Glc 4 Fucα1 [3'HSO3Lewis a]”: the “binding to immobilised antigen in ELISA (in words)” value in test [3] is listed as “no binding above background”.
Same read-out and setting: the value for “HSO3-3Galβ4GlcNAcβ3Galβ4Glc 3 Fucα1 [3'HSO3Lewis x]” was “no binding above background”.
